In patent US9096829B2, “Human mast cell line and uses thereof” (UNIVERSITY OF SOUTH FLORIDA, priority 2009, dated 2015):

Experiments:
Format in all cases: cell-based, human
[1] = test system: USF-MC1 cells; test: Beta-hexosaminidase (histamine) release from USF-MC1 mast cells
Procedure: (§1) FIGS. 3A-D show graphs of histamine (beta hexosaminidase) release from USF-MC1 cells compared to LAD2 cells after one hour (FIGS. 3A and 3B, respectively), and after six hours (FIGS. 3D and 3C, respectively). USF-MC1 cells (2×10^6 per well) were coated with biotinylated human myeloma IgE for 18 hours. Cells were then washed and challenged with streptavidin (100 ng/ml), ionomycin (5 μM), ANP (1 μM), ANP+KP2, ANP+Isatin. After 30 minutes, supernatants and cell lysates were developed with […] and optical density (OD) was read at 405 nm. Percent release is expressed as a ratio of supernatant over total (supernatant+lysate). […] In addition, ANP-induced histamine release is attenuated by an NPRA receptor antagonist (isatin).
In order to activate mast cells via the FceR1 receptor, cells were cultured for 18 hours with biotinylated human myeloma IgE (100 ng/ml)(Sigma). Cells were then challenged with streptavidin (100 ng/ml)(Sigma), ionomycin (5 μM), or atrial natriuretic peptide (ANP) (100 ng/ml). After 30 minutes, supernatants and cell pellets were harvested. Substrate solution (p-Nitrophenyl-N-acetyl-B-D-glucosaminide Calbiochem, 0.13% in sodium citric solution) was added to either the cell supernatants or pellets and incubated for 1.5 hr. 0.4M glycine solution was then added to stop the reaction. The optical density (OD) was read at 405 nm. Percent release was expressed as a ratio of supernatant over total (supernatant+lysate). Percent release of beta-hexosadminidase by SV40 LT-transfected USF-MC1 cells and non-transfected USF-MC1 cells is shown in FIG. 5C.
USF-MC1 cells (2×10^6 per well) were coated with biotinylated human myeloma IgE for 18 hours. Cells were then washed and challenged with streptavidin (100 ng/ml), ionomycin (5 μM), ANP (1 μM), ANP+KP2, ANP+Isatin. After 30 minutes, supernatants and cell lysates were developed with […] and optical density (OD) was read at 405 nm. Percent release is expressed as a ratio of supernatant over total (supernatant+lysate). […]

[2] = test system: LAD2 cells; test: Beta-hexosaminidase (histamine) release from LAD2 mast cells; conditions: ANP challenge plus isatin
Procedure: as §1
In order to activate mast cells via the FceR1 receptor, cells were cultured for 18 hours with biotinylated human myeloma IgE (100 ng/ml)(Sigma). Cells were then challenged with streptavidin (100 ng/ml)(Sigma), ionomycin (5 μM), or atrial natriuretic peptide (ANP) (100 ng/ml). After 30 minutes, supernatants and cell pellets were harvested. […] The optical density (OD) was read at 405 nm. Percent release was expressed as a ratio of supernatant over total (supernatant+lysate). […]

[3] = test system: USF-MC1 cells; test: Leukotriene C4 release (ELISA) from USF-MC1 mast cells; conditions: ANP challenge plus isatin
Procedure: (§2) TNF-a (R&G Systems), IL-17 (eBioscience), and Leukotrine C4 (Cayman Chemical) protein concentrations in mast cell supernatants were determined using ELISA kits from each respective manufacturer. Each ELISA was performed according to the manufacturer's instructions.

[4] = test system: LAD2 cells; test: Leukotriene C4 release (ELISA) from LAD2 mast cells; conditions: ANP challenge plus isatin
Procedure: as §2

| SMILES | histamine (beta hexosaminidase) release after challenge ([1]; ionomycin 5 μM or ANP 1 μM, 30 minutes) | effect on ANP-induced histamine release ([1]; ANP 1 μM + isatin, 30 minutes) | effect on ANP-induced release of B-Hex ([1]; ANP challenge plus isatin) | effect on ANP-induced release of B-Hex [2] | effect on ANP-induced release of LTC4 [3] | effect on ANP-induced release of LTC4 [4] |
| --- | --- | --- | --- | --- | --- | --- |
| C[C@H](CCC(=O)O)C[C@H](C)C[C@H](C)C(=O)/C=C(\O)[C@H](C)C[C@H](C)C/C=C/[C@@H](C)[C@@H](O)[C@@H](C)[C@@H](O)C[C@@H]1CC[C@@](C)([C@H]2CC[C@@](C)([C@@H](C)O)O2)O1 [ionomycin] | releases histamine within minutes |  |  |  |  |  |
| O=C1Nc2ccccc2C1=O [isatin] |  | attenuated | reduced to baseline | reduced to baseline | reduced to baseline | reduced to baseline |
